The results in this text go back to patent US12269803B2, “Krüppel-like factor 15 (KLF15) small molecule agonists in kidney disease” (United States Government as represented by the Department …, priority 2020, dated 2025).

One data set has as its system human podocytes. In words: Toxicity to human podocytes in primary screening assay (Renilla, cell viability). Particulars: 1 μM, 24 hr. It is filed as cell-based. On the procedure: After the synthesis of these novel analogues, a primary screening assay was conducted.
The next data set concerns KLF15 promoter. Nature of the data set: KLF15 reporter human podocyte assay (HTS, dose-response, primary screening). It is filed as cell-based. Particulars: dose-response curve, human podocytes, luciferase/renilla. As to the method:
A stable reporter assay directed at KLF15 promoter region (4.3 kb region) was generated in human podocytes, a fragment of human KLF15 promoter upstream of the start codon, by amplifying and subcloning it into the firefly luciferase reporter plasmid (co-transfection with renilla to serve as internal controls). KLF15 promoter activity is measured as a ratio of luciferase to renilla activity. Using this reporter cell line, a cell-based HTS assay was developed using recently reported cell-seeding methodology specific to cultured podocytes (16).

Turning to `CC1(C)OB(c2ccc(C(N)=NO)cc2)OC1(C)C` [BT506], the “toxicity to human podocytes” value in the data set with human podocytes is reported as “Toxicity”.
As a reminder, the EC50 is the concentration at which the effect is half-maximal. In the data set on KLF15 promoter, `C[C@@H]1C[C@H]2[C@@H]3CCC4=CC(=O)C=C[C@]4(C)[C@@]3(F)[C@@H](O)C[C@]2(C)[C@@]1(O)C(=O)CO` [DEX, dexamethasone, reference compound] yielded an EC50 of 5.41 µM.
